The record followed here is patent publication US20050245540A1, “New methods” (FUJISAWA PHARMACEUTICAL CO., LTD., priority 2003, published 2005).

The subject of series [1] is calvaria from 5-day-old ICR mice. The series is described as follows: Assay using mouse calvarial organ culture (calvaria bone formation assay). It is filed as cell-based. The following applies: test compound 1.0 × 10^−5 M added in combination with TGF-beta1; new bone area by histomorphometry after 1 week culture. Here is the method: Assay using Mouse Calvarial Organ Culture
Calvaria bone formation assay was essentially performed as described by Bonewald et al. (Endocrinology 139:3178, 1998). The calvaria from 5-day-old ICR mice were excised and cut in half along the sagittal suture. Each half of the calvaria was placed on a stainless steel grid in a 12-well tissue culture dish. Each well contained BGJ media (Sigma) supplemented with 0.1% bovine serum albumine, to which the test compound was added in combination with TGF-beta1. The media was changed 24 and 96 hrs. Calvaria were maintained in humidified air (5% CO2) at 37° C. for 1 week. The calvaria were then fixed overnight in formalin, decalcified in EDTA, and were then embedded in paraffin wax. Calvaria sections were stained with hematoxylin and eosin. Histomorphometric analysis was performed using the Image-pro Plus (Trade mark, Media Cybernetics). The sum of the new bone area was determined. Rate of increase was calculated in the following; [formula] • Calvaria area is calculated using Histomorphometric analysis. • Ats: Score of area in case of addition of test compound and TGF beta1 • Atg: Score of area in case of addition of TGF beta1 • Ac: Score of area in case of no addition (Control)

Where a name gives a salt, the structure may show the parent alone.

The term melting point denotes the temperature of the solid-liquid transition. As to `CC(C)(C)OC(=O)N1CCC(c2c[nH]c3ccccc23)CC1` [Example 1, tert-butyl 4-(1H-indol-3-yl)-1-piperidinecarboxylate], the melting point lay within 159 to 160 °C.
On to `COc1ccc(Cn2cc(C3CCNCC3)c3ccc(C#N)cc32)cc1Cl.Cl` [49-(6), 1-(3-Chloro-4-methoxybenzyl)-6-cyano-3-(4-piperidinyl)-1H-indole hydrochloride], for which the Rate of increase in series [1] came to 112%.
For the molecule `CS(=O)(=O)c1ccc(Cn2cc(C3CCNCC3)c3ccccc32)cc1` [Example 7, 1-[4-(methylsulfonyl)benzyl]-3-(4-piperidinyl)-1H-indole hydrochloride], in series [1], the Rate of increase is reported as 206%.
The same measure, in the same setting: to `COc1ccc(Cn2cc(C3CCN(C(=O)OC(C)(C)C)CC3)c3ccc(C#N)cc32)cc1Cl` [46-(4)] belongs 203%.
Still for that read-out and setting: for `COC(=O)c1cccc(Cn2cc(C3CCNCC3)c3ccccc32)c1` [9-(18)] the value was 158%.
On the same count and under the same terms, for `CC(C)(C)OC(=O)NCCCCCCCN1CCC(c2c[nH]c3ccc(O)cc23)CC1` [40-(3), 3-[1-(7-tert-butoxycarbonylaminoheptyl)-4-piperidinyl]-5-hydroxy-1H-indole] the value was 140%; for `Cc1ccc(Cn2cc(C3CCNCC3)c3ccccc32)cc1C` [9-(5)], 180%.
As to `CC(C)(C)OC(=O)N1CCC(c2cn(S(C)(=O)=O)c3ccccc23)CC1` [Example 4, tert-butyl 4-[1-(methylsulfonyl)-1H-indol-3-yl]-1-piperidinecarboxylate], the melting point lay in the range of 136 to 137 °C.
